Where two headings read alike, the source gives them in different places.
Tests used:
[1] = Water solubility at 20° C. determined by HPLC; format: physicochemical
Experimental: The solubility was determined as follows: a certain amount of the sample was weighed and the solvent was added thereto in portions with stirring or ultrasonication to accelerate dissolution; the amount of the consumed solvent was recorded once the sample was dissolved. […] A certain volume of the solution was taken, followed by filtration, concentration, dissolved with a certain volume of other suitable solvents and subjected to HPLC measurement to obtain accurate data of the solubility.

[2] = Comparison of absorption in rats after intragastric administration of free base and salt (plasma pharmacokinetics); format: in vivo, SD rats; conditions: for AUC (0-t) and Cmax, comparison in words: rats, oral, same dose, free base and 6 salts
Experimental: The blood sample was centrifuged at 8000 RPM for 5 minutes, followed by the isolation of the upper plasma. […] 200 μL of the supernatant was taken and centrifuged again for 10 minutes. 50 μL of the supernatant was injected in a 96-well plate. The plasma drug concentration was determined by LC/MS/MS, and the corresponding pharmacokinetic parameters were calculated.

[3] = Solid-state stability test; format: physicochemical
Experimental: An appropriate amount of the drugs were placed in the surface dish, spread to a thickness of 3-5 mm, and exposed in high temperature, high temperature and high humidity, illumination and oxidation conditions for 10 days respectively, and the solid-state characterization was performed. The purity and the number of impurities 0.05%) of the samples for testing were determined by HPLC, and compared with the samples on day 0. The exposure conditions are:
High temperature (an oven with T=60° C.);
Illumination (25° C., a 4500±500 lx light incubator);
Oxidation (25° C., a closed container containing urea hydrogen peroxide).

Solution stability test = format: physicochemical
Experimental: About 15 mg of the sample was weighed accurately, dissolved with 25 mL of the test solvent (10% aqueous acetone solution, pH=4.0 B-R buffer solution, SGF, SIF) via ultrasound for 20 minutes. The solution was divided into four portions and placed in the clear glass vials, followed by sealing. The samples were exposed in different environments and sampled on day 0 and day 5. The purity of each sample was determined by HPLC, and the number of impurities greater than 0.05% was calculated and compared with the samples on day 0. The exposure environments are:
Room temperature and light-proof test, 25° C.; […]
Illumination experiment (4500±500 lx), 25° C.;
Oxidation experiment (3% v/v hydrogen peroxide), 25° C.

[4] = Dynamic vapor sorption (DVS), isothermal absorption analysis; format: physicochemical
Experimental: In the present invention, according to the common knowledge in the art, the amount of water absorption obtained from the dynamic vapor sorption (DVS) pattern is expressed in percentage by weight.
The isothermal absorption analysis (DVS) data was collected from TA Instruments Q5000 TGA. The software for instrument control was Thermal Advantage and software for analysis was Universal Analysis. 1-10 mg of the sample was generally placed in a platinum crucible, and the weight change of the sample during the relative humidity changing from 20% to 80% was recorded by the TA software. Depending on the specifics of the sample, different steps of sample adsorption and desorption were also involved.

[5] = SD rats, 20 μmol/kg, intragastric administration, plasma
[6] = 10 d, High temperature (oven, T=60° C.)
[7] = 10 d, High temperature and high humidity (40° C., 75% relative humidity)
[8] = 10 d, Illumination (25° C., 4500±500 lx)
[9] = 10 d, Oxidation (25° C., closed container with urea hydrogen peroxide)
[10] = rat, po, 20 umol/kg, SD rats, intragastric administration, plasma
[11] = 10% aqueous acetone solution, 5 d, High temperature
[12] = 10% aqueous acetone solution, 5 d, High temperature and high humidity
[13] = 10% aqueous acetone solution, 5 d, Illumination (4500±500 lx, 25° C.)
[14] = B-R Buffer solution (pH=4.0), 5 d, High temperature
[15] = B-R Buffer solution (pH=4.0), 5 d, High temperature and high humidity
[16] = B-R Buffer solution (pH=4.0), 5 d, Illumination (4500±500 lx, 25° C.)
[17] = B-R Buffer solution (pH=4.0), 5 d, Oxidation (3% v/v hydrogen peroxide, 25° C.)
[18] = SGF, 5 d, High temperature and high humidity
[19] = SGF, 5 d, Illumination (4500±500 lx, 25° C.)
[20] = SGF, 5 d, Oxidation (3% v/v hydrogen peroxide, 25° C.)
[21] = SIF, 5 d, High temperature and high humidity
[22] = SIF, 5 d, Illumination (4500±500 lx, 25° C.)
[23] = SIF, 5 d, Oxidation (3% v/v hydrogen peroxide, 25° C.)
[24] = relative humidity range of 50-80%

Question: Which “water solubility at 20° C. determined by HPLC” value [1] does the source give for `C=C(F)C(=O)Nc1cc2c(Nc3ccc(F)c(Cl)c3)ncnc2cc1OCCCN1CCOCC1.O=C(O)[C@H](O)[C@@H](O)[C@H](O)[C@H](O)CO` here?
Answer: Its value is 51.4 µg/mL.

Question: And the “AUC (0-t)” value [2, 5]?
Answer: Its value is 484.40 ± 201.71 µM·min.

Question: And the “MRT (0-T)” value [2, 5]?
Answer: Its value is 6.2613 ± 2.5515 h.

Question: And the Tmax [2, 5]?
Answer: Its Tmax is 1.333 ± 0.5773 h.

Question: What about the t1/2 [2, 5] of the same molecule?
Answer: The t1/2 was 3.5572 ± 0.3487 h.

Question: What about the Cmax ([2]; SD rats, 20 μmol/kg, intragastric administration, plasma, listed as mono-D-gluconate) of the same molecule?
Answer: Its Cmax is 1120 ± 280 nM.

Question: What about the “AUC (0-t) and Cmax, comparison in words” value [2] of the same molecule?
Answer: Its value is “relatively low”.

Question: Which results are given for `C=C(F)C(=O)Nc1cc2c(Nc3ccc(F)c(Cl)c3)ncnc2cc1OCCCN1CCOCC1.Cl.O`?
Answer: water solubility at 20° C. determined by HPLC [1]: 51.5 µg/mL; AUC (0-t) [2, 5]: 507.89 ± 66.81 µM·min; MRT (0-T) [2, 5]: 6.8127 ± 1.364 h; Tmax [2, 5]: 1.167 ± 0.2887 h; t1/2 [2, 5]: 4.5078 ± 1.56 h; Cmax ([2]; SD rats, 20 μmol/kg, intragastric administration, plasma, listed as monohydrochloride monohydrate): 980 ± 60 nM; AUC (0-t) and Cmax, comparison in words [2]: relatively low

Question: For `C=C(F)C(=O)Nc1cc2c(Nc3ccc(F)c(Cl)c3)ncnc2cc1OCCCN1CCOCC1` [N-[4-(3-chloro-4-fluoroanilino)]-7-(3-morpholinopropoxy)-6-(2-fluoroacrylamido)-quinazoline, reference compound], which Number of impurities ([3]; 0 d) is on record?
Answer: Its Number of impurities is 1.

Question: And the Number of impurities [3, 6]?
Answer: The Number of impurities was 2.

Question: What about the Purity [3, 6] of the same molecule?
Answer: Its Purity is 99.0%.

Question: And the Number of impurities [3, 7]?
Answer: Its Number of impurities is 3.

Question: And the Purity [3, 7]?
Answer: Its Purity is 99.0%.

Question: What about the Number of impurities [3, 8] of the same molecule?
Answer: Its Number of impurities is 2.

Question: What about the Purity [3, 8] of the same molecule?
Answer: Its Purity is 99.0%.

Question: What about the Number of impurities [3, 9] of the same molecule?
Answer: The Number of impurities was 3.

Question: What about the Purity [3, 9] of the same molecule?
Answer: Its Purity is 99.0%.

Question: And the AUC (0-t) ([2]; rat, po, 20 umol/kg, SD rats, 20 μmol/kg, intragastric administration, plasma, read-out: AUC (0-t) (converted))?
Answer: Its AUC (0-t) is 123 µM·min.

Question: What about the MRT last ([2]; rat, po, 20 umol/kg, SD rats, 20 μmol/kg, intragastric administration, plasma, read-out: MRT (0-T) (converted)) of the same molecule?
Answer: Its MRT last is 6.66 h.

Question: What about the Tmax ([2]; rat, po, 20 umol/kg, SD rats, 20 μmol/kg, intragastric administration, plasma, read-out: Tmax (converted)) of the same molecule?
Answer: Its Tmax is 1 h.

Question: What about the Cmax [2, 10] of the same molecule?
Answer: The Cmax was 310 ± 70 nM.

Question: And the half-life [2, 10]?
Answer: Its half-life is 4.28 ± 1.77 h.

Question: And the Purity (Solution stability test; 10% aqueous acetone solution, 0 d)?
Answer: The Purity was 93.4%.

Question: What about the Number of impurities (Solution stability test; 10% aqueous acetone solution, 0 d, impurities greater than 0.05%) of the same molecule?
Answer: Its Number of impurities is 2.

Question: And the Number of impurities (Solution stability test; [11])?
Answer: Its Number of impurities is 2.

Question: And the Purity (Solution stability test; [11])?
Answer: The Purity was 83.1%.

Question: What about the Number of impurities (Solution stability test; [12]) of the same molecule?
Answer: The Number of impurities was 6.

Question: And the Purity (Solution stability test; [12])?
Answer: Its Purity is 13.3%.

Question: What about the Number of impurities (Solution stability test; [13]) of the same molecule?
Answer: Its Number of impurities is 4.

Question: What about the Purity (Solution stability test; [13]) of the same molecule?
Answer: The Purity was 61.5%.

Question: What about the Purity (Solution stability test; 10% aqueous acetone solution, 5 d, Oxidation (3% v/v hydrogen peroxide, 25° C.)) of the same molecule?
Answer: The Purity was “Complete”.

Question: And the Purity (Solution stability test; B-R Buffer solution (pH=4.0), 0 d)?
Answer: Its Purity is 99.0%.

Question: What about the Number of impurities (Solution stability test; B-R Buffer solution (pH=4.0), 0 d, impurities greater than 0.05%) of the same molecule?
Answer: Its Number of impurities is 1.

Question: What about the Number of impurities (Solution stability test; [14]) of the same molecule?
Answer: Its Number of impurities is 1.

Question: And the Purity (Solution stability test; [14])?
Answer: Its Purity is 99.0%.

Question: What about the Number of impurities (Solution stability test; [15]) of the same molecule?
Answer: Its Number of impurities is 4.

Question: What about the Purity (Solution stability test; [15]) of the same molecule?
Answer: The Purity was 95.0%.

Question: What about the Number of impurities (Solution stability test; [16]) of the same molecule?
Answer: Its Number of impurities is 1.

Question: What about the Purity (Solution stability test; [16]) of the same molecule?
Answer: The Purity was 99.0%.

Question: And the Number of impurities (Solution stability test; [17])?
Answer: The Number of impurities was 13.

Question: And the Purity (Solution stability test; [17])?
Answer: Its Purity is 40.6%.

Question: And the Purity (Solution stability test; SGF, 0 d)?
Answer: Its Purity is 99.0%.

Question: What about the Number of impurities (Solution stability test; SGF, 0 d, impurities greater than 0.05%) of the same molecule?
Answer: Its Number of impurities is 2.

Question: And the Number of impurities (Solution stability test; SGF, 5 d, High temperature)?
Answer: The Number of impurities was 2.

Question: What about the Purity (Solution stability test; SGF, 5 d, High temperature) of the same molecule?
Answer: The Purity was 99.0%.

Question: What about the Number of impurities (Solution stability test; [18]) of the same molecule?
Answer: Its Number of impurities is 4.

Question: What about the Purity (Solution stability test; [18]) of the same molecule?
Answer: The Purity was 94.2%.

Question: And the Number of impurities (Solution stability test; [19])?
Answer: Its Number of impurities is 2.

Question: And the Purity (Solution stability test; [19])?
Answer: Its Purity is 99.0%.

Question: And the Number of impurities (Solution stability test; [20])?
Answer: Its Number of impurities is 3.

Question: What about the Purity (Solution stability test; [20]) of the same molecule?
Answer: Its Purity is 84.3%.

Question: What about the Purity (Solution stability test; SIF, 0 d) of the same molecule?
Answer: The Purity was 88.9%.

Question: And the Number of impurities (Solution stability test; SIF, 0 d, impurities greater than 0.05%)?
Answer: Its Number of impurities is 1.

Question: And the Number of impurities (Solution stability test; SIF, 5 d, High temperature)?
Answer: The Number of impurities was 2.

Question: And the Purity (Solution stability test; SIF, 5 d, High temperature)?
Answer: The Purity was 85.6%.

Question: What about the Number of impurities (Solution stability test; [21]) of the same molecule?
Answer: The Number of impurities was 4.

Question: What about the Purity (Solution stability test; [21]) of the same molecule?
Answer: The Purity was 81.9%.

Question: And the Number of impurities (Solution stability test; [22])?
Answer: Its Number of impurities is 18.

Question: And the Purity (Solution stability test; [22])?
Answer: Its Purity is 50.0%.

Question: What about the Number of impurities (Solution stability test; [23]) of the same molecule?
Answer: The Number of impurities was 5.

Question: And the Purity (Solution stability test; [23])?
Answer: Its Purity is 62.7%.

Question: Which “weight change (water absorbed) by DVS” value ([4]; relative humidity range of 0-80%) does the source give for `C=C(F)C(=O)Nc1cc2c(Nc3ccc(F)c(Cl)c3)ncnc2cc1OCCCN1CCOCC1.O.O.O=C(O)CC(O)(CC(=O)O)C(=O)O` [crystal form 5 of the dihydrate] here?
Answer: The value was 0.4%.

Question: Which “weight change (water absorbed) by DVS” value ([4]; relative humidity range of 10-80%) does the source give for `C=C(F)C(=O)Nc1cc2c(Nc3ccc(F)c(Cl)c3)ncnc2cc1OCCCN1CCOCC1.O.O.O=C(O)CC(O)(CC(=O)O)C(=O)O` [crystal form 7 of the dihydrate] here?
Answer: Its value is 0.38%.

Question: With `C=C(F)C(=O)Nc1cc2c(Nc3ccc(F)c(Cl)c3)ncnc2cc1OCCCN1CCOCC1.O.O.O.O=C(O)CC(O)(CC(=O)O)C(=O)O` [crystal form 10 of the trihydrate] as the molecule, how does the “water eliminated by DVS” value ([4]; below a relative humidity of 50%) read?
Answer: The value was 3.5%.

Question: What about the “stability of the hydrate (DVS), in words” value [4, 24] of the same molecule?
Answer: Its value is “stable”.

Question: And the “weight change (water absorbed) by DVS” value [4, 24]?
Answer: Its value is 1.1%.

Question: What does the source list for `C=C(F)C(=O)Nc1cc2c(Nc3ccc(F)c(Cl)c3)ncnc2cc1OCCCN1CCOCC1.O.O.O=C(O)CC(O)(CC(=O)O)C(=O)O` [crystal form 11 of the dihydrate]?
Answer: stability of the hydrate (DVS), in words [4, 24]: stable; weight change (water absorbed) by DVS [4, 24]: 5.3%

Question: For `C=C(F)C(=O)Nc1cc2c(Nc3ccc(F)c(Cl)c3)ncnc2cc1OCCCN1CCOCC1.O=C(O)CC(O)(CC(=O)O)C(=O)O` [crystal form 13 of the monocitrate], which “weight change (water absorbed) by DVS” value ([4]; relative humidity range of 20-80%) is on record?
Answer: Its value is 0.2%.

Reference: patent publication US10870627B2, “Salt of quinazoline derivative, preparation method therefor and application thereof” (SHANGHAI PHARMACEUTICALS HOLDING CO., LTD., priority 2016, dated 2020)
